Measured values from patent US9637491B2, “Pyrazolo[4,3-D]pyrimidines as kinase inhibitors” (Origenis GmbH, priority 2012, dated 2017).
Blank lines part the entries; values can stand above or below the compound they belong to.

Molecular target: T1, SYK kinase (Homo sapiens, UniProt P43405)
T1 construct: purchased Invitrogen, Carlsbad
Experiment: SYK assay (OMNIA Kinase Assay, Invitrogen)
Type: biochemical
Conditions: SYK Activities; 1 mM ATP, 10 μM Omnia Peptide Substrate Tyr 7, 30° C.
Method: In the assay OMNIA® KINASE ASSAY by Invitrogen Corporation (Carlsbad) the effect of invention of a compound on the phosphorylation is determined by measurement of fluorescence intensity of a chelation-enhanced fluorophore called SOX. Upon phosphorylation of the peptide by the kinase of interest, Mg2+ is chelated to form a bridge between the SOX moiety and the phosphate group that is transferred to the specific tyrosine on the peptide. The fluorescence intensity is directly proportional to the amount of peptide phosphorylation.
To the wells of an 384 well small volume plate (Greiner, Frickenhausen) are added (i) the compound under test in 5% DMSO/distilled water (2 μl), (ii) 16 μl of the master mix containing ATP, DTT, Kinase Reaction Buffer, Omina Peptide Substrate Tyr 7 resulting in a final concentration of 1 mM ATP, 0.2 mM DTT and 10 μM Peptide Substrate. The Master Mix and the assay plate was incubated to reaction temperature before the measurement (30° C.). The reaction was started with addition of (iii) 2 μl 4 μg/ml SYK kinase (Invitrogen, Carlsbad). During measurement fluorescence intensitiy readings were collected using a TECAN M1000 at a wavelength of λex 360/λem 485 nm every 30 s for 30 minutes. The reaction velocity was plotted versus the inhibitor concentration to determine the IC50 using XLFit 5.0 (IDBS, Guildford) to fit to a sigmoidal dose response curve.

IC50: 10 to 100 nM
Structure (SMILES): NS(=O)(=O)c1cccc(-c2nc(Nc3cnn(CCO)c3)c3[nH]ncc3n2)c1 [Example 526, 3-(7-((1-(2-hydroxyethyl)-1H-pyrazol-4-yl)amino)-1H-pyrazolo[4,3-d]pyrimidin-5-yl)benzenesulfonamide]

IC50: 100 to 1000 nM
Structure (SMILES): CS(=O)(=O)Nc1cccc(-c2nc(Nc3cnn(C4CCOCC4)c3)c3[nH]ncc3n2)c1 [Example 263, N-(3-(7-((1-(tetrahydro-2H-pyran-4-yl)-1H-pyrazol-4-yl)amino)-1H-pyrazolo[4,3-d]pyrimidin-5-yl)phenyl)methanesulfonamide]

IC50: < 10 nM
Structure (SMILES): CC(C)n1cc(Nc2nc(-c3ccoc3)nc3cn[nH]c23)cn1 [Example 220, 5-(furan-3-yl)-N-(1-isopropyl-1H-pyrazol-4-yl)-1H-pyrazolo[4,3-d]pyrimidin-7-amine]

IC50: 10 to 100 nM
Structure (SMILES): N#Cc1cc(Nc2nc(-c3c(F)cccc3F)nc3cn[nH]c23)ccc1N1CCOCC1 [Example 502, 5-((5-(2,6-difluorophenyl)-1H-pyrazolo[4,3-d]pyrimidin-7-yl)amino)-2-morpholinobenzonitrile]

IC50: 100 to 1000 nM
Structure (SMILES): CC(C)(C)c1nc(Nc2cnn(C3CC3)c2)c2[nH]ncc2n1 [Example 273, 5-(tert-butyl)-N-(1-cyclopropyl-1H-pyrazol-4-yl)-1H-pyrazolo[4,3-d]pyrimidin-7-amine]

IC50: 10 to 100 nM
Structure (SMILES): COCCCn1cc(Nc2nc(-c3cccs3)nc3cn[nH]c23)cn1 [Example 429, N-(1-(3-methoxypropyl)-1H-pyrazol-4-yl)-5-(thiophen-2-yl)-1H-pyrazolo[4,3-d]pyrimidin-7-amine]

IC50: 100 to 1000 nM
Structure (SMILES): CC(c1ccccc1)n1cc(Nc2nc(-c3ccoc3)nc3cn[nH]c23)cn1 (stereo not drawn) [Example 487, 5-(furan-3-yl)-N-(1-(1-phenylethyl)-1H-pyrazol-4-yl)-1H-pyrazolo[4,3-d]pyrimidin-7-amine]

IC50: 100 to 1000 nM
Structure (SMILES): COCCCn1cc(Nc2nc(-c3cccc(S(N)(=O)=O)c3)nc3cn[nH]c23)cn1 [Example 424, 3-(7-((1-(3-methoxypropyl)-1H-pyrazol-4-yl)amino)-1H-pyrazolo[4,3-d]pyrimidin-5-yl)benzenesulfonamide]

IC50: 10 to 100 nM
Structure (SMILES): COCCn1cc(Nc2nc(-c3ccco3)nc3cn[nH]c23)cn1 [Example 195, 5-(furan-2-yl)-N-(1-(2-methoxyethyl)-1H-pyrazol-4-yl)-1H-pyrazolo[4,3-d]pyrimidin-7-amine]

IC50: 100 to 1000 nM
Structure (SMILES): Cc1nn(C(C)C)cc1Nc1nc(-c2ccoc2)nc2cn[nH]c12 [Example 292, 5-(furan-3-yl)-N-(1-isopropyl-3-methyl-1H-pyrazol-4-yl)-1H-pyrazolo[4,3-d]pyrimidin-7-amine]

IC50: 10 to 100 nM
Structure (SMILES): OC1CCN(c2ccc(Nc3nc(-c4ccco4)nc4cn[nH]c34)cc2)CC1 [Example 450, 1-(4-((5-(furan-2-yl)-1H-pyrazolo[4,3-d]pyrimidin-7-yl)amino)phenyl)piperidin-4-ol]

IC50: 10 to 100 nM
Structure (SMILES): CC(C)Cn1cc(Nc2nc(-c3ccoc3)nc3cn[nH]c23)cn1 [Example 240, 5-(furan-3-yl)-N-(1-isobutyl-1H-pyrazol-4-yl)-1H-pyrazolo[4,3-d]pyrimidin-7-amine]

IC50: 10 to 100 nM
Structure (SMILES): COc1cc(Nc2nc(-c3ccccc3F)nc3cn[nH]c23)ccc1N1CCOCC1 [Example 25, 5-(2-fluorophenyl)-N-(3-methoxy-4-morpholinophenyl)-1H-pyrazolo[4,3-d]pyrimidin-7-amine]

IC50: 10 to 100 nM
Structure (SMILES): NS(=O)(=O)c1cccc(-c2nc(Nc3ccc4c(c3)NC(=O)CCC4)c3[nH]ncc3n2)c1 [Example 525, 3-(7-((2-oxo-2,3,4,5-tetrahydro-1H-benzo[b]azepin-8-yl)amino)-1H-pyrazolo[4,3-d]pyrimidin-5-yl)benzenesulfonamide]

The next lines start with the compound.

Structure (SMILES): NS(=O)(=O)c1cccc(-c2nc(Nc3cnn(C4CCOCC4)c3)c3[nH]ncc3n2)c1 [Example 425, 3-(7-((1-(tetrahydro-2H-pyran-4-yl)-1H-pyrazol-4-yl)amino)-1H-pyrazolo[4,3-d]pyrimidin-5-yl)benzenesulfonamide]
IC50: 10 to 100 nM

Structure (SMILES): COCCCn1cc(Nc2nc(-c3ccoc3)nc3cn[nH]c23)cn1 [Example 221, 5-(furan-3-yl)-N-(1-(3-methoxypropyl)-1H-pyrazol-4-yl)-1H-pyrazolo[4,3-d]pyrimidin-7-amine]
IC50: < 10 nM

Structure (SMILES): CN1CCN(C2CCN(c3ccc(Nc4nc(-c5ccccc5NS(C)(=O)=O)nc5cn[nH]c45)cc3)CC2)CC1 [Example 29, N-(2-(7-((4-(4-(4-methylpiperazin-1-yl)piperidin-1-yl)phenyl)amino)-1H-pyrazolo[4,3-d]pyrimidin-5-yl)phenyl)methanesulfonamide]
IC50: 10 to 100 nM

Structure (SMILES): O=C1OCCN1c1ccc(Nc2nc(-c3cccs3)nc3cn[nH]c23)cc1 [Example 38]
IC50: 100 to 1000 nM

Structure (SMILES): N#Cc1cc(Nc2nc(-c3ccc4cn[nH]c4c3)nc3cn[nH]c23)ccc1N1CCOCC1 [Example 85, 5-((5-(1H-indazol-6-yl)-1H-pyrazolo[4,3-d]pyrimidin-7-yl)amino)-2-morpholinobenzonitrile]
IC50: 10 to 100 nM

Structure (SMILES): CN1CCC(n2cc(Nc3nc(-c4cocn4)nc4cn[nH]c34)cn2)CC1 [Example 129, N-(1-(1-methylpiperidin-4-yl)-1H-pyrazol-4-yl)-5-(oxazol-4-yl)-1H-pyrazolo[4,3-d]pyrimidin-7-amine]
IC50: 100 to 1000 nM

Structure (SMILES): CC(C)(C)n1cc(Nc2nc(-c3ccco3)nc3cn[nH]c23)cn1 [Example 212, N-(1-(tert-butyl)-1H-pyrazol-4-yl)-5-(furan-2-yl)-1H-pyrazolo[4,3-d]pyrimidin-7-amine]
IC50: 10 to 100 nM

Structure (SMILES): c1nc(-c2nc(Nc3ccc(N4CCOCC4)cc3)c3[nH]ncc3n2)co1 [Example 48, N-(4-morpholinophenyl)-5-(oxazol-4-yl)-1H-pyrazolo[4,3-d]pyrimidin-7-amine]
IC50: 100 to 1000 nM

Structure (SMILES): CC(=O)N1CCN(c2ccc(Nc3nc(-c4ccc5cn[nH]c5c4)nc4cn[nH]c34)cc2)CC1 [Example 50, 1-(4-(4-((5-(1H-indazol-6-yl)-1H-pyrazolo[4,3-d]pyrimidin-7-yl)amino)phenyl)piperazin-1-yl)ethan-1-one]
IC50: < 10 nM

Structure (SMILES): CN1CCC(n2cc(Nc3nc(-c4cccs4)nc4cn[nH]c34)cn2)CC1 [Example 433, N-(1-(1-methylpiperidin-4-yl)-1H-pyrazol-4-yl)-5-(thiophen-2-yl)-1H-pyrazolo[4,3-d]pyrimidin-7-amine]
IC50: < 10 nM

Structure (SMILES): CC(C)C(C)n1cc(Nc2nc(-c3ccoc3)nc3cn[nH]c23)cn1 (stereo not drawn) [Example 482, 5-(furan-3-yl)-N-(1-(3-methylbutan-2-yl)-1H-pyrazol-4-yl)-1H-pyrazolo[4,3-d]pyrimidin-7-amine]
IC50: 10 to 100 nM

Structure (SMILES): O=C1OCCN1c1ccc(Nc2nc(-c3ccoc3)nc3cn[nH]c23)cc1 [Example 98]
IC50: 100 to 1000 nM

Structure (SMILES): CN1CCC(n2cc(Nc3nc(-c4ccc5cn[nH]c5c4)nc4cn[nH]c34)cn2)CC1 [Example 132, 5-(1H-indazol-6-yl)-N-(1-(1-methylpiperidin-4-yl)-1H-pyrazol-4-yl)-1H-pyrazolo[4,3-d]pyrimidin-7-amine]
IC50: 10 to 100 nM

Structure (SMILES): COCCCn1cc(Nc2nc(C(C)(C)C)nc3cn[nH]c23)cn1 [Example 270, 5-(tert-butyl)-N-(1-(3-methoxypropyl)-1H-pyrazol-4-yl)-1H-pyrazolo[4,3-d]pyrimidin-7-amine]
IC50: 100 to 1000 nM

Structure (SMILES): c1ccc(Cn2cc(-c3nc(Nc4ccc(N5CCOCC5)cc4)c4[nH]ncc4n3)cn2)cc1 [Example 460, 5-(1-benzyl-1H-pyrazol-4-yl)-N-(4-morpholinophenyl)-1H-pyrazolo[4,3-d]pyrimidin-7-amine]
IC50: 10 to 100 nM

Structure (SMILES): COc1cc(Nc2nc(C3C4CCCCC43)nc3cn[nH]c23)ccc1N1CCOCC1 (stereo not drawn) [Example 475, 5-(bicyclo[4.1.0]heptan-7-yl)-N-(3-methoxy-4-morpholinophenyl)-1H-pyrazolo[4,3-d]pyrimidin-7-amine]
IC50: 100 to 1000 nM

Structure (SMILES): c1coc(-c2nc(Nc3cnn(C4CC4)c3)c3[nH]ncc3n2)c1 [Example 278, N-(1-cyclopropyl-1H-pyrazol-4-yl)-5-(furan-2-yl)-1H-pyrazolo[4,3-d]pyrimidin-7-amine]
IC50: 10 to 100 nM

Structure (SMILES): CC(=O)N1CCN(c2ccc(Nc3nc(C4CC4)nc4cn[nH]c34)cc2)CC1 [Example 33, 1-(4-(4-((5-cyclopropyl-1H-pyrazolo[4,3-d]pyrimidin-7-yl)amino)phenyl)piperazin-1-yl)ethan-1-one]
IC50: 100 to 1000 nM

Structure (SMILES): CC(C)n1cc(-c2nc(Nc3ccc(N4CCOCC4)cc3)c3[nH]ncc3n2)cn1 [Example 421, 5-(1-isopropyl-1H-pyrazol-4-yl)-N-(4-morpholinophenyl)-1H-pyrazolo[4,3-d]pyrimidin-7-amine]
IC50: 10 to 100 nM

Structure (SMILES): CC(C(=O)O)n1cc(Nc2nc(-c3ccoc3)nc3cn[nH]c23)cn1 (stereo not drawn) [Example 486, 2-(4-((5-(furan-3-yl)-1H-pyrazolo[4,3-d]pyrimidin-7-yl)amino)-1H-pyrazol-1-yl)propanoic acid]
IC50: 100 to 1000 nM

Structure (SMILES): CC(C)(C#N)n1cc(Nc2nc(-c3ccc4cn[nH]c4c3)nc3cn[nH]c23)cn1 [Example 416, 2-(4-((5-(1H-indazol-6-yl)-1H-pyrazolo[4,3-d]pyrimidin-7-yl)amino)-1H-pyrazol-1-yl)-2-methylpropanenitrile]
IC50: 10 to 100 nM

Structure (SMILES): OCCN1CCN(c2ccc(Nc3nc(-c4c(F)cccc4F)nc4cn[nH]c34)cc2)CC1 [Example 501, 2-(4-(4-((5-(2,6-difluorophenyl)-1H-pyrazolo[4,3-d]pyrimidin-7-yl)amino)phenyl)piperazin-1-yl)ethan-1-ol]
IC50: 10 to 100 nM
